{"source": "patent US9469654B2", "about": "“Bicyclic oxa-lactam kinase inhibitors” (PORTOLA PHARMACEUTICALS, INC., priority 2012, dated 2016)", "origin": "cited, not measured here", "key": {"[1]": {"system": "lymphoma cell lines and primary human lymphoma samples"}, "[2]": {"system": "refractory NHL and chronic lymphocytic leukemia", "settings": "phase II clinical trial"}}, "data": [{"molecule": "COc1cc(Nc2ncc(F)c(Nc3ccc4c(n3)NC(=O)C(C)(C)O4)n2)cc(OC)c1OC", "note": "[Example R406]", "values": [{"measurement": "activity against JAK kinases", "setting": "JAK kinases", "value": "active against"}, {"measurement": "activity against Src kinase", "setting": "Src kinsase", "value": "not against"}, {"measurement": "apoptosis", "setting": "[1]; lymphoma cell lines", "value": "resulting in apoptosis"}, {"measurement": "effect on BCR signaling", "setting": "[1]; lymphoma cell lines and primary human lymphoma samples", "value": "attenuates BCR signaling"}, {"measurement": "clinical outcome", "setting": "[2]", "value": "favorable results"}]}]}
